Test systems include SNB-78 CNS; HT29 colon; DMS 114 small cell lung; CCRF-CEM leukemia; SF-295 CNS; SN12C renal; DLD-1 colon; KM20L2 colon; NCI-H522 lung; SK-OV-3 ovarian; PC-3 prostate; NCI/ADR-RES ovarian.
Holding throughout (test): NCI tumour cell line growth inhibition, 48 h

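Grown in 96-well plates, cells were treated for 48 hours with each compound at five concentrations. Insufficient inhibition: endpoint recorded as highest concentration tested. TGI denotes the concentration required for complete inhibition of growth.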 Bounds are passed on as bounds.

Consider `CC(=O)c1ccc(NC(=O)/C(=N\NC(N)=O)C(C#N)CC(C)(C)C=O)cc1` (stereo not drawn), for which the TGI in the test on SNB-78 CNS, in the test on HT29 colon, in the test on DMS 114 small cell lung, in the test on CCRF-CEM leukemia, in the test with SF-295 CNS and with SN12C renal was over 100 µM throughout. Moreover, the TGI with DLD-1 colon, with KM20L2 colon, with NCI-H522 lung and in the test with SK-OV-3 ovarian was over 100 µM throughout.

In the case of `Cc1ccc(NC(=O)c2cccc([N+](=O)[O-])c2O)c(C)c1`, the TGI was over 100 µM with SNB-78 CNS; over 100 µM in the test with HT29 colon; over 100 µM in the test with DMS 114 small cell lung; over 100 µM in the test with CCRF-CEM leukemia; 74.3 µM with SF-295 CNS; over 100 µM with SN12C renal. In addition, the TGI with DLD-1 colon was over 100 µM; in the test on KM20L2 colon it was over 100 µM; with NCI-H522 lung, 70.1 µM; in the test on SK-OV-3 ovarian it was over 100 µM.

For the compound `COCC(=O)[C@]1(O)Cc2c(O)c3c(c(O)c2[C@@H](OC2CC(N)C(O)C(C)O2)C1)C(=O)c1c(OC)cccc1C3=O` (stereo partly drawn), the TGI with SNB-78 CNS was found to be 30.6 µM; in the test on HT29 colon, 0.735 µM; in the test on DMS 114 small cell lung, 0.477 µM; with CCRF-CEM leukemia it was 0.4 µM; with SF-295 CNS, 1.34 µM; with SN12C renal, 3.42 µM. Besides, the TGI with DLD-1 colon came to 5.15 µM; in the test on PC-3 prostate it was 1.48 µM; with KM20L2 colon it was 0.938 µM; with NCI-H522 lung, 0.124 µM; in the test with SK-OV-3 ovarian, 4.03 µM.

With `O=C(c1ccc(Cl)cc1)N1N=C(c2ccc(Cl)cc2)CC1(O)c1cc(F)c(Cl)cc1Cl` (stereo not drawn), the TGI in the test with NCI/ADR-RES ovarian is over 100 µM; in the test with HT29 colon it was 72.5 µM; in the test on CCRF-CEM leukemia, over 100 µM; in the test with SF-295 CNS, over 100 µM; in the test on SN12C renal, 73.4 µM; in the test on PC-3 prostate, over 100 µM. The TGI with NCI-H522 lung and in the test on SK-OV-3 ovarian was over 100 µM throughout.

`O=C(NN=C1CCCCC1)Nc1ccccc1Cl`: the TGI with NCI/ADR-RES ovarian was 63.9 µM; in the test with HT29 colon, over 100 µM; in the test with CCRF-CEM leukemia, over 100 µM; with SF-295 CNS it was over 100 µM; with SN12C renal, over 100 µM; with PC-3 prostate, over 100 µM. Further, the TGI with NCI-H522 lung and in the test with SK-OV-3 ovarian was over 100 µM each time.

Regarding `C1OCN2c3nonc3N3COCN4c5nonc5N1C2C43` (stereo not drawn), the TGI with NCI/ADR-RES ovarian, in the test on HT29 colon, with CCRF-CEM leukemia, in the test on SF-295 CNS, with SN12C renal and with PC-3 prostate was over 100 µM throughout. The TGI with NCI-H522 lung and in the test on SK-OV-3 ovarian was over 100 µM throughout.

`CCCCCC(/C=C/[C@@H]1CC(=O)C[C@H]1O[Si](C)(C)C(C)(C)C)OCOCCOC` (stereo partly drawn): the TGI in the test on NCI/ADR-RES ovarian was 10.5 µM; in the test with HT29 colon, 10.1 µM; in the test with CCRF-CEM leukemia, over 100 µM; in the test on SF-295 CNS, 25.5 µM; in the test with SN12C renal, 24.1 µM; in the test with PC-3 prostate, 14.1 µM. For the same compound, the results for the TGI in the test with NCI-H522 lung and in the test on SK-OV-3 ovarian were 4.01 µM and 32 µM, respectively.

`Cc1ccc([N+](=O)[O-])cc1S(=O)(=O)Nc1ccc(C2=NN(c3ccc([N+](=O)[O-])cc3[N+](=O)[O-])C(c3ccccc3O)C2)cc1` (stereo not drawn): the TGI in the test with NCI/ADR-RES ovarian was over 100 µM; with HT29 colon, over 100 µM; with CCRF-CEM leukemia, over 100 µM; in the test on SF-295 CNS, over 100 µM; in the test on SN12C renal, 54 µM; in the test on PC-3 prostate, over 100 µM. For the same compound, the TGI in the test on NCI-H522 lung was 83.1 µM; with SK-OV-3 ovarian it was over 100 µM.

In the case of `N#CC1N(C(=O)c2ccc(F)cc2)c2ccccc2N1C(=O)c1ccc(F)cc1`, the TGI with NCI/ADR-RES ovarian was 93.5 µM; with HT29 colon, over 100 µM; in the test with CCRF-CEM leukemia, 87.2 µM; in the test with SF-295 CNS, over 100 µM; in the test with SN12C renal, over 100 µM; in the test with PC-3 prostate it was over 100 µM. Further, the TGI with NCI-H522 lung and in the test with SK-OV-3 ovarian was over 100 µM in each case.

On to `COc1ccc(N2CCN(c3ccc4c(c3)NCC(=O)N4)CC2)cc1`, for which the TGI in the test on NCI/ADR-RES ovarian was 68.5 µM; in the test on HT29 colon it was over 100 µM; in the test with CCRF-CEM leukemia, over 100 µM; with SF-295 CNS, over 100 µM; in the test on SN12C renal, over 100 µM; in the test with PC-3 prostate it was over 100 µM. Also, the TGI in the test on NCI-H522 lung is 30.8 µM; in the test on SK-OV-3 ovarian, over 100 µM.

In the case of `CC(NC(=O)C(C)C(=O)NCc1ccc(C(F)(F)F)cc1)C(N)=O` (stereo not drawn), the TGI with NCI/ADR-RES ovarian, in the test on HT29 colon, in the test with CCRF-CEM leukemia, in the test on SF-295 CNS, with SN12C renal and with PC-3 prostate was over 100 µM each time. Besides, the TGI with NCI-H522 lung and with SK-OV-3 ovarian was over 100 µM each time.

For the compound `Cc1ccc(O)c(Cc2nc3ccccc3nc2-c2cccc(Br)c2)c1`, the TGI with NCI/ADR-RES ovarian, in the test with HT29 colon, in the test with CCRF-CEM leukemia, in the test with SF-295 CNS, in the test with SN12C renal and in the test on PC-3 prostate was over 100 µM in each case. Also, the TGI in the test on NCI-H522 lung and in the test with SK-OV-3 ovarian was over 100 µM each time.

With `O=C(c1ccc(Cl)cc1)N(C(=S)N1CCN(c2ccccn2)CC1)c1ccccc1`, the TGI with SNB-78 CNS, in the test with HT29 colon, in the test with DMS 114 small cell lung, with CCRF-CEM leukemia, in the test with SF-295 CNS and with SN12C renal was over 100 µM throughout. In addition, the TGI with DLD-1 colon, with KM20L2 colon, in the test with NCI-H522 lung and with SK-OV-3 ovarian was over 100 µM throughout.

For the origin of these results see PubChem BioAssay (NCI).
